Drawing on patent publication US12157746B2, “Tetrahydro-1H-pyrazino[2,1-a]isoindolylquinoline compounds for the treatment of autoimmune disease” (F. HOFFMANN-LA ROCHE AG, priority 2018, dated 2024), this text covers IC50 for 20 compounds.

In the test the target is T1, human TLR7 (Homo sapiens, UniProt Q9NYK1).
T1 sequence (Q9NYK1 27-1049): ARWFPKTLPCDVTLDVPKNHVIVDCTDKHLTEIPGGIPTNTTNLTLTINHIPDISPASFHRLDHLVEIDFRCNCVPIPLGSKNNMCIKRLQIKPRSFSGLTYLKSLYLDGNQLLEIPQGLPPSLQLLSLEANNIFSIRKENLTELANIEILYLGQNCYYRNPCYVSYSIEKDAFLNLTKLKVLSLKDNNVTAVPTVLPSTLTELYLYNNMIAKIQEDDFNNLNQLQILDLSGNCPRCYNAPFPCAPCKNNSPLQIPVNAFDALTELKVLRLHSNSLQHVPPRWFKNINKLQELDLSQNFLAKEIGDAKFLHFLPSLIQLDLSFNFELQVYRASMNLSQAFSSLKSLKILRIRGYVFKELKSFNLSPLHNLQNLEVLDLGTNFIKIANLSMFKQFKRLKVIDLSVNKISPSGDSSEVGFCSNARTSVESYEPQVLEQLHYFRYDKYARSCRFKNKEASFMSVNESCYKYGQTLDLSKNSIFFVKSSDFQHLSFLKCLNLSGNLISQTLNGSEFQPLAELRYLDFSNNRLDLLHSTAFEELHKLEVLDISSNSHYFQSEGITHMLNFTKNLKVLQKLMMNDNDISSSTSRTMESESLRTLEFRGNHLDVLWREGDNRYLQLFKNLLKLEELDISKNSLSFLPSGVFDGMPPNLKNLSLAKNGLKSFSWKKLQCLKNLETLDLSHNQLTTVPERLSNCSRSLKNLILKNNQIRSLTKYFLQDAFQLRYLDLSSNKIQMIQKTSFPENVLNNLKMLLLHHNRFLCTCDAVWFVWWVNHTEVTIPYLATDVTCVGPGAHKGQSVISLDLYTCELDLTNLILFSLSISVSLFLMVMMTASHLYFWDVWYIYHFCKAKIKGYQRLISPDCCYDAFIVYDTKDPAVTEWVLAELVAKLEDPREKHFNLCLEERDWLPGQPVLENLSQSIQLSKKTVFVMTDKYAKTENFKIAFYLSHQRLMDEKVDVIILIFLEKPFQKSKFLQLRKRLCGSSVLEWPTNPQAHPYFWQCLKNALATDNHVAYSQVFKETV
Put plainly: HEK293-Blue-hTLR-7 cells assay. It counts as cell-based. The following applies: HEK293-Blue-hTLR7 cells, R848 stimulation, 20 hrs, SEAP reporter; read-out: HEK/hTLR7 IC50. From the text: HEK293-Blue-hTLR-7 Cells Assay:
A stable HEK293-Blue-hTLR-7 cell line was purchased from InvivoGen (Cat. #: hkb-htlr7, San Diego, California, USA). These cells were originally designed for studying the stimulation of human TLR7 by monitoring the activation of NF-κB. A SEAP (secreted embryonic alkaline phosphatase) reporter gene was placed under the control of the IFN-β minimal promoter fused to five NF-κB and AP-1-binding sites. The SEAP was induced by activating NF-κB and AP-1 via stimulating HEK-Blue hTLR7 cells with TLR7 ligands. Therefore the reporter expression was declined by TLR7 antagonist under the stimulation of a ligand, such as R848 (Resiquimod), for incubation of 20 hrs. The cell culture supernatant SEAP reporter activity was determined using QUANTI-Blue™ kit (Cat. #: rep-qb1, Invivogen, San Diego, Ca. USA) at a wavelength of 640 nm, a detection medium that turns purple or blue in the presence of alkaline phosphatase.
HEK293-Blue-hTLR7 cells were incubated at a density of 250,000˜450,000 cells/mL in a volume of 170 μL in a 96-well plate in Dulbecco's Modified Eagle's medium (DMEM) containing 4.5 g/L glucose, 50 U/mL penicillin, […], […], 2 mM L-glutamine, 10% (v/v) heat-inactivated fetal bovine serum with addition of 20 μL test compound 1n a serial dilution in the presence of final DMSO at 1% and 10 μL of 20 uM R848 in above DMEM, perform incubation under 37° C. in a CO2 incubator for 20 hrs. Then 20 μL of the supernatant from each well was incubated with 180 μL Quanti-blue substrate solution at 37° C. for 2 hrs and the absorbance was read at 620-655 nm using a spectrophotometer. The signaling pathway that TLR7 activation leads to downstream NF-κB activation has been widely accepted, and therefore similar reporter assay was modified for evaluating TLR7 antagonist.

Some results are limits rather than exact numbers.

`C[C@@H]1CN(c2ccc(C#N)c3ncccc23)C[C@@H]2c3ccc(N4CCOC5(CNC5)C4)cc3CN12` [Example 24, 5-[(4R,10bS)-4-methyl-8-(5-oxa-2,8-diazaspiro[3.5]nonan-8-yl)-3,4,6,10b-tetrahydro-1H-pyrazino[2,1-a]isoindol-2-yl]quinoline-8-carbonitrile]: the IC50 is 3.4 nM. In the case of `C[C@@H]1CN(c2ccc(C#N)c3ncccc23)C[C@@H]2c3ccc(C4CCNCC4)cc3CN12` [Example 9, 5-[(4R,10bS)-4-methyl-8-(4-piperidyl)-3,4,6,10b-tetrahydro-1H-pyrazino[2,1-a]isoindol-2-yl]quinoline-8-carbonitrile] it was less than 3.2 nM; in that of `C[C@@H]1CN(c2ccc(C#N)c3ncsc23)C[C@@H]2c3ccc(N4CCNCC4)cc3CN12` [Example 6, 7-[(4R,10bS)-4-methyl-8-piperazin-1-yl-3,4,6,10b-tetrahydro-1H-pyrazino[2,1-a]isoindol-2-yl]-1,3-benzothiazole-4-carbonitrile], less than 3.2 nM. With `C[C@@H]1CN(c2ccc(C#N)c3ncccc23)C[C@@H]2c3ccc(N4CC5(CCN5)C4)cc3CN12` [Example 37, 5-[(4R,10bS)-8-(1,6-diazaspiro[3.3]heptan-6-yl)-4-methyl-3,4,6,10b-tetrahydro-1H-pyrazino[2,1-a]isoindol-2-yl]quinoline-8-carbonitrile], the IC50 was less than 3.2 nM. Turning to `C[C@@H]1CN(c2ccc3c(c2)CN2[C@H](C)CN(c4ccc(C#N)n5nccc45)C[C@H]32)CCN1` [Example 97, 4-[(4R,10bS)-4-methyl-8-[(3R)-3-methylpiperazin-1-yl]-3,4,6,10b-tetrahydro-1H-pyrazino[2,1-a]isoindol-2-yl]pyrazolo[1,5-a]pyridine-7-carbonitrile], the IC50 came to 5 nM. In the case of `C[C@@H]1CN(c2ccc(C#N)c3ncccc23)C[C@@H]2c3ccc(N4CCNC[C@H](O)C4)cc3CN12` [Example 53A, 5-[(4R,10bS)-8-[(6S)-6-hydroxy-1,4-diazepan-1-yl]-4-methyl-3,4,6,10b-tetrahydro-1H-pyrazino[2,1-a]isoindol-2-yl]quinoline-8-carbonitrile] it was 3.9 nM; in that of `C[C@@H]1CN(c2ccc(C#N)c3ncccc23)C[C@@H]2c3ccc(N4C[C@H](N)[C@@](C)(O)C4)cc3CN12` [Example 45B, 5-[(4R,10bS)-8-[(3S,4S)-4-amino-3-hydroxy-3-methyl-pyrrolidin-1-yl]-4-methyl-3,4,6,10b-tetrahydro-1H-pyrazino[2,1-a]isoindol-2-yl]quinoline-8-carbonitrile], 3.3 nM. In the case of `CO[C@H]1CN(c2ccc3c(c2)CN2[C@H](C)CN(c4ccc(C#N)n5nccc45)C[C@H]32)C[C@@H]1N` [Example 95, 4-[(4R,10bS)-8-[(3S,4S)-3-amino-4-methoxy-pyrrolidin-1-yl]-4-methyl-3,4,6,10b-tetrahydro-1H-pyrazino[2,1-a]isoindol-2-yl]pyrazolo[1,5-a]pyridine-7-carbonitrile] it was 20.8 nM; in that of `C[C@@H]1CN(c2ccc(C#N)c3ncccc23)C[C@@H]2c3ccc(N4C[C@@H](N)[C@](C)(O)C4)cc3CN12` [Example 45A, 5-[(4R,10bS)-8-[(3R,4R)-4-amino-3-hydroxy-3-methyl-pyrrolidin-1-yl]-4-methyl-3,4,6,10b-tetrahydro-1H-pyrazino[2,1-a]isoindol-2-yl]quinoline-8-carbonitrile], 3.5 nM. In the case of `C[C@@H]1CN(c2ccc(C#N)c3ncccc23)C[C@@H]2c3ccc(N4CCOC[C@@H](N)C4)cc3CN12` [Example 54B, 5-[(4R,10bS)-8-[(6S)-6-amino-1,4-oxazepan-4-yl]-4-methyl-3,4,6,10b-tetrahydro-1H-pyrazino[2,1-a]isoindol-2-yl]quinoline-8-carbonitrile] it was 5.7 nM; in that of `C[C@@H]1CN(c2ccc(C#N)c3ncccc23)C[C@@H]2c3ccc(N[C@@H]4CNC[C@H]4F)cc3CN12` [Example 33, 5-[(4R,10bS)-8-[[(3R,4R)-4-fluoropyrrolidin-3-yl]amino]-4-methyl-3,4,6,10b-tetrahydro-1H-pyrazino[2,1-a]isoindol-2-yl]quinoline-8-carbonitrile], less than 3.2 nM. For `C[C@@H]1CN(c2ccc(C#N)c3ncccc23)C[C@@H]2c3ccc(NC4CNCCOC4)cc3CN12` (stereo partly drawn) [Example 56, 5-[(4R,10bS)-4-methyl-8-(1,4-oxazepan-6-ylamino)-3,4,6,10b-tetrahydro-1H-pyrazino[2,1-a]isoindol-2-yl]quinoline-8-carbonitrile], the IC50 turned out to be 6.9 nM. In the case of `C[C@@H]1CN(c2ccc(C#N)c3ncccc23)C[C@@H]2c3cccc(N4CCNCC4)c3CN12` [Example 8, 5-[(4R,10bS)-4-methyl-7-piperazin-1-yl-3,4,6,10b-tetrahydro-1H-pyrazino[2,1-a]isoindol-2-yl]quinoline-8-carbonitrile] it was less than 3.2 nM; in that of `C[C@@H]1CN(c2ccc(C#N)c3ncccc23)C[C@@H]2c3ccc(N4CC[C@@H](N)C4)cc3CN12` [Example 20, 5-[(4R,10bS)-8-[(3R)-3-aminopyrrolidin-1-yl]-4-methyl-3,4,6,10b-tetrahydro-1H-pyrazino[2,1-a]isoindol-2-yl]quinoline-8-carbonitrile], 3.4 nM; in that of `CN[C@H]1CN(c2ccc3c(c2)CN2[C@H](C)CN(c4ccc(C#N)c5ncccc45)C[C@H]32)C[C@@H]1O` [Example 42, 5-[(4R,10bS)-8-[(3S,4S)-3-hydroxy-4-(methylamino)pyrrolidin-1-yl]-4-methyl-3,4,6,10b-tetrahydro-1H-pyrazino[2,1-a]isoindol-2-yl]quinoline-8-carbonitrile], less than 3.2 nM. In the case of `C[C@@H]1CN(c2ccc(C#N)c3ncccc23)C[C@@H]2c3ccc(NC4CNC4)cc3CN12` [Example 28, 5-[(4R,10S)-8-(azetidin-3-ylamino)-4-methyl-3,4,6,10b-tetrahydro-1H-pyrazino[2,1-a]isoindol-2-yl]quinoline-8-carbonitrile], the IC50 came out at 15.6 nM. On to `C[C@@H]1CN(c2ccc(C#N)c3ncccc23)C[C@@H]2c3ccc(N4CC(N)C5(COC5)C4)cc3CN12` (stereo partly drawn) [Example 18, 5-[(4R,10bS)-8-(5-amino-2-oxa-7-azaspiro[3.4]octan-7-yl)-4-methyl-3,4,6,10b-tetrahydro-1H-pyrazino[2,1-a]isoindol-2-yl]quinoline-8-carbonitrile], for which the IC50 worked out at 4.9 nM. In the case of `COC12CNCC1CN(c1ccc3c(c1)CN1[C@H](C)CN(c4ccc(C#N)c5ncccc45)C[C@H]31)C2` (stereo partly drawn) [Example 41, 5-[(4R,10bS)-8-(3a-methoxy-1,2,3,4,6,6a-hexahydropyrrolo[3,4-c]pyrrol-5-yl)-4-methyl-3,4,6,10b-tetrahydro-1H-pyrazino[2,1-a]isoindol-2-yl]quinoline-8-carbonitrile] it was less than 3.2 nM; in that of `CO[C@H]1CN(c2ccc3c(c2)CN2C3CN(c3ccc(C#N)c4ncccc34)C[C@H]2C)C[C@@H]1N` (single isomer, unassigned) [Example 16A], 5.3 nM; in that of `C[C@@H]1CN(c2ccc(C#N)c3ncccc23)C[C@@H]2c3ccc(N4C[C@@H](F)[C@@H](N)C4)cc3CN12` [Example 46, 5-[(4R,10bS)-8-[(3S,4R)-3-amino-4-fluoro-pyrrolidin-1-yl]-4-methyl-3,4,6,10b-tetrahydro-1H-pyrazino[2,1-a]isoindol-2-yl]quinoline-8-carbonitrile], 15.6 nM.
